Experimental data: US20210122730A1, “GLUCOCORTICOID RECEPTOR MODULATORS” (ORIC Pharmaceuticals, Inc., priority 2017, published 2021)

Biological target: T1, GR (Homo sapiens, UniProt P04150)
T1 construct: expressed in transfected cells; host or cells: CHO-K1
T1 sequence (P04150 1-777): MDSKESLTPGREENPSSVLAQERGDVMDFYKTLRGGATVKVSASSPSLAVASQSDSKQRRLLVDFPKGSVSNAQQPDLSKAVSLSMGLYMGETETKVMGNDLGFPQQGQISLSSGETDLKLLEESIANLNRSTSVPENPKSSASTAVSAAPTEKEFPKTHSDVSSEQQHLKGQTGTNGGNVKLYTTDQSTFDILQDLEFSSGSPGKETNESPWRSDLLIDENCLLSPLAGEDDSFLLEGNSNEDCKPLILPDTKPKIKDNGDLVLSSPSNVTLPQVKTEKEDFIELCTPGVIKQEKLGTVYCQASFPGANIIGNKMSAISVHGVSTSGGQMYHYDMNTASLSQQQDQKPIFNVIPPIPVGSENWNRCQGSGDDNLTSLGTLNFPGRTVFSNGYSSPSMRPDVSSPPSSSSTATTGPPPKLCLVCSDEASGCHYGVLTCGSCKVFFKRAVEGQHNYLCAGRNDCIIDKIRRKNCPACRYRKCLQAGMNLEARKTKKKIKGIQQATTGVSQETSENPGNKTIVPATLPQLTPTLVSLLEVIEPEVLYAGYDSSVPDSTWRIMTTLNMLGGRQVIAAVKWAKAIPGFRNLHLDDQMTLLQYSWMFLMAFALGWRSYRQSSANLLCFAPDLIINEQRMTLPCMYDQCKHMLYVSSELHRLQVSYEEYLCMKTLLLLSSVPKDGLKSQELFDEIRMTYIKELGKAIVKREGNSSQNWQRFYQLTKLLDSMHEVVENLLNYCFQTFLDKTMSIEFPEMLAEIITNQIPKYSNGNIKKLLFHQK
Experiment: In Vitro GR Luciferase Reporter Assay (antagonist mode, CHO-K1-GR-MMTV-Luc reporter cells)
Assay type: cell-based
Details: antagonist mode, 10 nM Dexamethasone
How it was run: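 CHO-K1-GR-MMTV-Luc cells in phenol red-free DMEM with 10% CSS, stimulated with 10 nM dexamethasone (final) and treated with 8-point 1:5 compound dilutions for about 18-24 h at 37° C. Luciferase measured by OneGlo luminescence; IC50 derived for inhibition of GR activity.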

SMILES | IC50
Cn1ncc(S(=O)(=O)N(C2CCC2)[C@H]2CCC3=Cc4c(cnn4-c4ccc(F)cc4)C[C@]3(C(=O)c3cc(C(F)(F)F)ccn3)C2)n1 [Example 256, N-cyclobutyl-N-((4aS,6S)-1-(4-fluorophenyl)-4a-(4-(trifluoromethyl)picolinoyl)-4,4a,5,6,7,8-hexahydro-1H-benzo[f]indazol-6-yl)-2-methyl-2H-1,2,3-triazole-4-sulfonamide] | ≤ 100 nM
Cn1ccc(S(=O)(=O)[C@H]2CCC3=Cc4c(cnn4-c4ccc(F)cc4)C[C@]3(C(=O)c3ncc(C(F)(F)F)s3)C2)n1 [Example 264, ((4aS,6S)-1-(4-fluorophenyl)-6-((1-methyl-1H-pyrazol-3-yl)sulfonyl)-1,4,5,6,7,8-hexahydro-4aH-benzo[f]indazol-4a-yl)(5-(trifluoromethyl)thiazol-2-yl)methanone] | ≤ 100 nM
O=C(c1cc(Cl)ccn1)[C@]12Cc3cnn(-c4ccc(F)cc4)c3C=C1CC[C@H](N(CC1CC1)S(=O)(=O)c1ccc(F)cc1)C2 [Example 275, N-((4aS,6S)-4a-(4-chloropicolinoyl)-1-(4-fluorophenyl)-4,4a,5,6,7,8-hexahydro-1H-benzo[f]indazol-6-yl)-N-(cyclopropylmethyl)-4-fluorobenzenesulfonamide] | ≤ 100 nM
O=C(c1cc(Cl)ccn1)[C@]12Cc3cnn(-c4ccc(F)cc4)c3C=C1CC[C@H](N(CC1(O)CC1)S(=O)(=O)c1ccc(F)cc1)C2 [Example 276, N-((4aS,6S)-4a-(4-chloropicolinoyl)-1-(4-fluorophenyl)-4,4a,5,6,7,8-hexahydro-1H-benzo[f]indazol-6-yl)-4-fluoro-N-((1-hydroxycyclopropyl)methyl) benzenesulfonamide] | ≤ 100 nM
CC(C)N([C@H]1CCC2=Cc3c(cnn3-c3ccc(F)cc3)C[C@]2(C(=O)c2cc(F)ccn2)C1)S(=O)(=O)c1cnn(C)n1 [Example 278, N-((4aS,6S)-1-(4-fluorophenyl)-4a-(4-fluoropicolinoyl)-4,4a,5,6,7,8-hexahydro-1H-benzo[f]indazol-6-yl)-N-isopropyl-2-methyl-2H-1,2,3-triazole-4-sulfonamide] | ≤ 100 nM
Cn1ccc(S(=O)(=O)N([C@H]2CCC3=Cc4c(cnn4-c4ccc(F)cc4)C[C@]3(C(=O)c3cc(F)ccn3)C2)[C@H]2C[C@@](C)(O)C2)n1 [Example 284, N-((4aS,6S)-1-(4-fluorophenyl)-4a-(4-fluoropicolinoyl)-4,4a,5,6,7,8-hexahydro-1H-benzo[f]indazol-6-yl)-N-((1s,3R)-3-hydroxy-3-methylcyclobutyl)-1-methyl-1H-pyrazole-3-sulfonamide] | ≤ 100 nM
O=C(c1cc(C(F)(F)F)ccn1)[C@]12Cc3cnn(-c4ccc(F)cc4)c3C=C1CC[C@H](N(C1CC1)S(=O)(=O)c1ccc(C(F)(F)F)nc1)C2 [Example 285, N-cyclopropyl-N-((4aS,6S)-1-(4-fluorophenyl)-4a-(4-(trifluoromethyl)picolinoyl)-4,4a,5,6,7,8-hexahydro-1H-benzo[f]indazol-6-yl)-6-(trifluoromethyl)pyridine-3-sulfonamide] | ≤ 100 nM
Cn1cc(S(=O)(=O)N(CC2CC2)[C@H]2CCC3=Cc4c(cnn4-c4ccc(F)cc4)C[C@]3(C(=O)c3cc(F)ccn3)C2)nn1 [Example 297, N-(cyclopropylmethyl)-N-((4aS,6S)-1-(4-fluorophenyl)-4a-(4-fluoropicolinoyl)-4,4a,5,6,7,8-hexahydro-1H-benzo[f]indazol-6-yl)-1-methyl-1H-1,2,3-triazole-4-sulfonamide] | ≤ 100 nM
Cn1cc(S(=O)(=O)[C@H]2CCC3=Cc4c(cnn4-c4ccc(F)cc4)C[C@]3(C(=O)c3cc(F)ccn3)C2)cn1 [Example 314, ((4aS,6S)-1-(4-fluorophenyl)-6-((1-methyl-1H-pyrazol-4-yl)sulfonyl)-1,4,5,6,7,8-hexahydro-4aH-benzo[f]indazol-4a-yl)(4-fluoropyridin-2-yl)methanone] | ≤ 100 nM
Cn1cc(S(=O)(=O)[C@H]2CCC3=Cc4c(cnn4-c4ccc(F)cc4)C[C@]3(C(=O)c3cc(Cl)ccn3)C2)cn1 [Example 317, (4-chloropyridin-2-yl)((4aS,6S)-1-(4-fluorophenyl)-6-((1-methyl-1H-pyrazol-4-yl)sulfonyl)-1,4,5,6,7,8-hexahydro-4aH-benzo[f]indazol-4a-yl)methanone] | ≤ 100 nM

Continued, values first:

IC50 | SMILES
≤ 100 nM | O=C(c1ncc(C(F)(F)F)s1)[C@]12Cc3cnn(-c4ccc(F)cc4)c3C=C1CC[C@H](N(C1CC1)S(=O)(=O)c1ccc(Cl)nc1)C2 [Example 271, 6-chloro-N-cyclopropyl-N-((4aS,6S)-1-(4-fluorophenyl)-4a-(5-(trifluoromethyl)thiazole-2-carbonyl)-4,4a,5,6,7,8-hexahydro-1H-benzo[f]indazol-6-yl)pyridine-3-sulfonamide]
≤ 100 nM | O=C(c1cc(F)ccn1)[C@]12Cc3cnn(-c4ccc(F)cc4)c3C=C1CC[C@H](N(CC1CC1)S(=O)(=O)c1ccc(F)cc1)C2 [Example 274, N-(cyclopropylmethyl)-4-fluoro-N-((4aS,6S)-1-(4-fluorophenyl)-4a-(4-fluoropicolinoyl)-4,4a,5,6,7,8-hexahydro-1H-benzo[f]indazol-6-yl)benzenesulfonamide]
≤ 100 nM | CC(C)N(C(=O)C1CCCC1)[C@H]1CCC2=Cc3c(cnn3-c3ccc(F)cc3)C[C@]2(C(=O)c2ncc(C(F)(F)F)s2)C1 [Example 281, N-((4aS,6S)-1-(4-fluorophenyl)-4a-(5-(trifluoromethyl)thiazole-2-carbonyl)-4,4a,5,6,7,8-hexahydro-1H-benzo[f]indazol-6-yl)-N-isopropylcyclopentanecarbox-amide]
100 to 1000 nM | O=C(c1ccc(F)cc1)N(C1CC1)[C@H]1CCC2=Cc3c(cnn3-c3ccc(F)cc3)C[C@]2(C(=O)c2ncc(C(F)(F)F)s2)C1 [Example 291, N-cyclopropyl-4-fluoro-N-((4aS,6S)-1-(4-fluorophenyl)-4a-(5-(trifluoromethyl)thiazole-2-carbonyl)-4,4a,5,6,7,8-hexahydro-1H-benzo[f]indazol-6-yl)benzamide]
≤ 100 nM | Cn1ncc(S(=O)(=O)N(CC2(O)CC2)[C@H]2CCC3=Cc4c(cnn4-c4ccc(F)cc4)C[C@]3(C(=O)c3ncc(C(F)(F)F)s3)C2)n1 [Example 292, N-((4aS,6S)-1-(4-fluorophenyl)-4a-(5-(trifluoromethyl)thiazole-2-carbonyl)-4,4a,5,6,7,8-hexahydro-1H-benzo[f]indazol-6-yl)-N-((1-hydroxycyclopropyl)methyl)-2-methyl-2H-1,2,3-triazole-4-sulfonamide]
≤ 100 nM | Cn1cc(S(=O)(=O)N(CC(C)(C)O)[C@H]2CCC3=Cc4c(cnn4-c4ccc(F)cc4)C[C@]3(C(=O)c3ncc(C(F)(F)F)s3)C2)nn1 [Example 301, N-((4aS,6S)-1-(4-fluorophenyl)-4a-(5-(trifluoromethyl)thiazole-2-carbonyl)-4,4a,5,6,7,8-hexahydro-1H-benzo[f]indazol-6-yl)-N-(2-hydroxy-2-methylpropyl)-1-methyl-1H-1,2,3-triazole-4-sulfonamide]
≤ 100 nM | CC(C)(O)CN([C@H]1CCC2=Cc3c(cnn3-c3ccc(F)cc3)C[C@]2(C(=O)c2cc(C(F)(F)F)ccn2)C1)S(=O)(=O)c1ccc(Cl)nc1 [Example 302, 6-chloro-N-((4aS,6S)-1-(4-fluorophenyl)-4a-(4-(trifluoromethyl)picolinoyl)-4,4a,5,6,7,8-hexahydro-1H-benzo[f]indazol-6-yl)-N-(2-hydroxy-2-methylpropyl)pyridine-3-sulfonamide]
≤ 100 nM | CC(C)(O)CN([C@H]1CCC2=Cc3c(cnn3-c3ccc(F)cc3)C[C@]2(C(=O)c2ncc(C(F)(F)F)s2)C1)S(=O)(=O)c1ccc(Cl)nc1 [Example 303, 6-chloro-N-((4aS,6S)-1-(4-fluorophenyl)-4a-(5-(trifluoromethyl)thiazole-2-carbonyl)-4,4a,5,6,7,8-hexahydro-1H-benzo[f]indazol-6-yl)-N-(2-hydroxy-2-methylpropyl)pyridine-3-sulfonamide]
≤ 100 nM | CC(C)(O)CN([C@H]1CCC2=Cc3c(cnn3-c3ccc(F)cc3)C[C@]2(C(=O)c2cc(F)ccn2)C1)S(=O)(=O)c1ccc(Cl)nc1 [Example 304, 6-chloro-N-((4aS,6S)-1-(4-fluorophenyl)-4a-(4-fluoropicolinoyl)-4,4a,5,6,7,8-hexahydro-1H-benzo[f]indazol-6-yl)-N-(2-hydroxy-2-methylpropyl)pyridine-3-sulfonamide]
≤ 100 nM | Cn1cnc(S(=O)(=O)N(CC2CC2)[C@H]2CCC3=Cc4c(cnn4-c4ccc(F)cc4)C[C@]3(C(=O)c3cc(C(F)(F)F)ccn3)C2)n1 [Example 316, N-(cyclopropylmethyl)-N-((4aS,6S)-1-(4-fluorophenyl)-4a-(4-(trifluoromethyl)picolinoyl)-4,4a,5,6,7,8-hexahydro-1H-benzo[f]indazol-6-yl)-1-methyl-1H-1,2,4-triazole-3-sulfonamide]
